Measurements reported in US9776989B2, “Chromone alkaloid dysoline for the treatment of cancer and inflammatory disorders” (Council of Scientific & Industrial Research, priority 2013, dated 2017).

Assays:
[1] = system: NCIH322 (lung); assay: MTT cell viability assay, NCIH322; format: cell-based; details: NCI-H322, 48 h treatment
Procedure: (§1) Anticancer activity of dysoline (1) along with rohitukine was evaluated using MTT cell viability assay on […] cancer cell lines viz. Colo205 (colon), HCT116 (colon), HT1080 (fibrosarcoma), NCIH322 (lung), A549 (lung), Molt-4 (leukemia) and HL60 (leukemia).
(§2) The cell were originated from The European Collection of Cell Cultures (ECACC, UK) and purchased through Sigma-Aldrich India.
(§3) The MTT assay was used to assess the effect of the test molecules on cell viability. Cell viability on eight cell lines viz. Colo205 (colon), HCT116 (colon), HT1080 (fibrosarcoma), NCIH322 (lung), A549 (lung), Molt-4 (leukemia) and HL60 (leukemia) was investigated. In each well of a 96-well plate, 3×10^3 cells were grown in 100 μL of medium. After 24 h, each test molecules were added to achieve a final concentration of 10 to 0.01 μmol/L, respectively. After 48 h of treatment, 20 μL of 2.5 mg/mL MTT (Organics Research, Inc.) solution in phosphate buffer saline was added to each well. After […], supernatant was removed and formazan crystals were dissolved in 200 μL of DMSO. Absorbance was then measured at 570 nm using an absorbance plate reader (Bio-Rad Microplate Reader). Data are expressed as the percentage of viable cells in treated relative to non-treated conditions. Each experiment was repeated thrice and data was expressed as mean±SD of three independent experiments (Mol. Cancer Ther. 2010, 9, 358-368).

[2] = system: TNF-α; assay: Inhibition of TNF-α production in splenocytes (ELISA); format: cell-based, male Balb/c mice; details: Con A or LPS, 72 h; for inhibition at 0.01 µM / inhibition at 0.1 µM / inhibition at 1 µM / inhibition at 10 µM / inhibition at 100 µM: Mus musculus, Splenocyte, read-out: Percentage inhibition of cytokine production, TNF-α
Procedure: (§4) Anti-inflammatory activity of dysoline (1) was evaluated by inhibiting production of pro-inflammatory cytokines such as tumor necrosis factor-alpha (TNF-α) and interleukin-6 (IL-6). […] The TNF-α inhibition activity of dysoline was compared with rohitukine.
(§5) Splenocytes of male Balb/c mice were seeded into three to four wells of a 96-well flat-bottom microtiter plate (Nunc) at 2×10^6 cells/ml. Cells were incubated with different concentrations of dysoline (0.01 μM-100 μM) along with Con A (2.5 μg/well) or LPS (1 μg/ml) for 72 h at 37° C. with 5% CO2 in CO2 incubator. The culture supernatants were harvested and the measurement of cytokines (TNF-α and IL-6) in the culture supernatants was carried out using commercial kits as per manufacturer's instructions by using ELISA kits (R&D, USA) (Life Sci. 2007, 80, 1525-1538; J. Immunol. Methods 1983, 65, 55-63).

[3] = system: A549 (lung); assay: MTT cell viability assay, A549; format: cell-based; details: Homo sapiens, 48 h treatment
Procedure: as §1, §2, §3

[4] = system: HCT-116 colon cancer cells; details: cited from earlier work
[5] = system: HL60 (leukemia); assay: MTT cell viability assay, HL-60; format: cell-based; details: Homo sapiens, HL-60 (leukemia), 48 h treatment
Procedure: as §1, §2, §3

[6] = system: HT1080 (fibrosarcoma); assay: MTT cell viability assay, HT1080; format: cell-based; details: 48 h treatment
Procedure: as §1, §2, §3

[7] = system: HL-60 promyelocytic leukemia; details: human HL-60 promyelocytic leukemia; cited from earlier work
[8] = system: Colo205 (colon); assay: MTT cell viability assay, Colo205; format: cell-based; details: Homo sapiens, COLO 205, 48 h treatment
Procedure: as §1, §2, §3

[9] = system: IL-6; assay: Inhibition of IL-6 production in splenocytes (ELISA); format: cell-based, male Balb/c mice; details: Splenocyte, mouse splenocytes, Con A or LPS, 72 h, read-out: Percentage inhibition of cytokine production, IL-6
Procedure: as §4, §5

[10] = system: HCT116 (colon); assay: MTT cell viability assay, HCT116; format: cell-based; details: Homo sapiens, HCT-116, 48 h treatment
Procedure: as §1, §2, §3

[11] = system: Molt-4 (leukemia); assay: MTT cell viability assay, MOLT-4; format: cell-based; details: Homo sapiens, 48 h treatment
Procedure: as §1, §2, §3

[12] = Stability; format: physicochemical
[13] = Water solubility; format: physicochemical

IC50 [3] [µM]	IC50 [5] [µM]	IC50 ([6]; Homo sapiens, HT-1080, 48 h) [µM]	IC50 [8] [µM]	IC50 [10] [µM]	IC50 [11] [µM]	SMILES	IC50 [1] [µM]	inhibition at 0.01 µM [2] [%]	inhibition at 0.1 µM [2] [%]	inhibition at 1 µM ([2]; 1 μM) [%]	inhibition at 10 µM [2] [%]	inhibition at 100 µM [2] [%]	inhibition at 0.01 µM [9] [%]	inhibition at 0.1 µM [9] [%]	inhibition at 1 µM [9] [%]	inhibition at 10 µM [9] [%]	inhibition at 100 µM [9] [%]	other results
> 10	10	< 10	> 10	> 10	> 10	Cc1cc(=O)c2c(O)cc(O)c([C@H]3CCN(C)C[C@H]3O)c2o1 [Rohitukine, 5,7-dihydroxy-2-methyl-8-[4-(3-hydroxy-1-methyl)-piperidinyl]-4H-1-benzopyran-4-one]	> 10	18	22	32	32	47	10	30	80	88	89	Percentage inhibition of cytokine production, TNF-α ([2]; 1 μM, mouse splenocytes): 28%; cytotoxicity [4]: moderate cytotoxicity; IC50 [6]: > 10 µM; cytotoxicity [7]: moderate cytotoxicity
> 10	10	0.21	> 10	> 10	> 10	Cc1cc(=O)c2c(O)c(C3CCN(C)CC3O)c(O)cc2o1 (centres unmarked) [Dysoline (1), 5,7-dihydroxy-6-(3-hydroxy-1-methylpiperidin-4-yl)-2-methyl-4H-chromen-4-one]	> 10	28	47	53	54	56	72	83	83	89	99	melting point: 310 to 315 °C; stability [12]: stable; water solubility [13]: good water solubility
